The subject of this experiment is CD2F1 mice, L1210 leukemia ip, survival T/C. Put plainly: NCI In Vivo Anticancer Drug Screen. Data for tumor model L1210 Leukemia (intraperitoneal) in CD2F1 (CDF1) mice. The following applies: higher = longer survival. In a few lines:
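Antitumor effect is scored in animals hosting a serially transplanted tumor. Values compare compound-dosed animals against vehicle-only controls as a simple quotient.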

Where [1] appears, read: endpoint: mean survival time, dose: 100.0 mg/kg/injection, schedule: Q01DX009 (ip), vehicle: saline.
[2] abbreviates: endpoint: mean survival time, dose: 100.0 mg/kg/injection, schedule: Q04DX003 (ip), vehicle: saline.
The mark [3] stands for this setting: endpoint: mean survival time, dose: 200.0 mg/kg/injection, schedule: Q04DX003 (ip), vehicle: saline.
Setting [4] is: endpoint: mean survival time, dose: 400.0 mg/kg/injection, schedule: Q04DX003 (ip), vehicle: saline.
Setting [5] is: endpoint: mean survival time, dose: 100.0 mg/kg/injection, schedule: Q01DX009 (ip), vehicle: saline with Tween-80.
Setting [6] is: endpoint: mean survival time, dose: 200.0 mg/kg/injection, schedule: Q01DX009 (ip), vehicle: saline with Tween-80.
Where [7] appears, read: endpoint: mean survival time, dose: 400.0 mg/kg/injection, schedule: Q01DX009 (ip), vehicle: saline with Tween-80.
[8] abbreviates: endpoint: mean survival time, dose: 50.0 mg/kg/injection, schedule: Q04DX002 (ip), vehicle: saline with Tween-80.
[9] abbreviates: endpoint: mean survival time, dose: 100.0 mg/kg/injection, schedule: Q04DX002 (ip), vehicle: saline with Tween-80.
The mark [10] stands for this setting: endpoint: mean survival time, dose: 200.0 mg/kg/injection, schedule: Q04DX002 (ip), vehicle: saline with Tween-80.
The mark [11] stands for this setting: endpoint: mean survival time, dose: 400.0 mg/kg/injection, schedule: Q04DX002 (ip), vehicle: saline with Tween-80.
Setting [12] is: endpoint: mean survival time, dose: 50.0 mg/kg/injection, schedule: Q01DX009 (ip), vehicle: saline with Tween-80.

Our source for the T/C values is PubChem BioAssay AID256 (DTP/NCI, 2004).

“And” between values parts separate entries of the source, which are not always exact repeats. Equal values may be shown once. Toxic doses and inconclusive results are not listed.

On to `O=[N+]([O-])c1ccc(OP2(Oc3ccc([N+](=O)[O-])cc3)=NP(Oc3ccc([N+](=O)[O-])cc3)(Oc3ccc([N+](=O)[O-])cc3)=NP(Oc3ccc([N+](=O)[O-])cc3)(Oc3ccc([N+](=O)[O-])cc3)=NP(Oc3ccc([N+](=O)[O-])cc3)(Oc3ccc([N+](=O)[O-])cc3)=N2)cc1`, for which the T/C is 100 % of control (endpoint: mean survival time, dose: 25.0 mg/kg/injection, schedule: Q01DX009 (ip), vehicle: saline); 100 % of control (endpoint: mean survival time, dose: 50.0 mg/kg/injection, schedule: Q01DX009 (ip), vehicle: saline); 100 % of control under setting [1]; 102 % of control under setting [2]; 100 % of control under setting [3]; 96 % of control under setting [4].
In the case of `CC1CCC[N-]C1.CC1CCC[N-]C1.CC1CCC[N-]C1.CC1CCC[N-]C1.[Cl][Rh][Cl]` (stereo unspecified), the T/C reads like this: (endpoint: mean survival time, dose: 4.0 mg/kg/injection, schedule: Q01DX009 (ip), vehicle: saline) 109 % of control; (endpoint: mean survival time, dose: 6.0 mg/kg/injection, schedule: Q01DX009 (ip), vehicle: saline) 122 % of control; (endpoint: mean survival time, dose: 9.0 mg/kg/injection, schedule: Q01DX009 (ip), vehicle: saline) 114 % of control.
Regarding `CCN(C(=O)Nc1cccc(Cl)c1)c1ccccc1C`, the T/C runs as follows: under setting [5], 91 % of control; under setting [6], 97 % of control; under setting [7], 97 % of control.
With `CSc1ccc(OC(=O)C(C)NC(=O)C(CO)NC(=O)OCc2ccccc2)cc1` (stereo unspecified), the T/C by setting is: under setting [8], 95 % of control; under setting [9], 92 % of control; under setting [10], 95 % of control; under setting [11], 92 % of control.
On to `CN(C)c1ccc(C(=O)OOOOC(c2ccc(N(C)C)cc2)(c2ccc(N(C)C)cc2)c2ccc(N(C)C)cc2)cc1`, for which the T/C is, setting by setting: (endpoint: mean survival time, dose: 50.0 mg/kg/injection, schedule: Q01DX001 (ip), vehicle: saline) 95 % of control; (endpoint: mean survival time, dose: 100.0 mg/kg/injection, schedule: Q01DX001 (ip), vehicle: saline) 95 % of control; (endpoint: mean survival time, dose: 200.0 mg/kg/injection, schedule: Q01DX001 (ip), vehicle: saline) 107 % of control; (endpoint: mean survival time, dose: 400.0 mg/kg/injection, schedule: Q01DX001 (ip), vehicle: saline) 89 % of control.
Take `CC1CN(C)CCN1C` (stereo unspecified): the T/C is 100 % of control under setting [1]; 104 % of control under setting [2]; 100 % of control (endpoint: mean survival time, dose: 200.0 mg/kg/injection, schedule: Q01DX009 (ip), vehicle: saline); 104 % of control under setting [3]; 98 % of control (endpoint: mean survival time, dose: 400.0 mg/kg/injection, schedule: Q01DX009 (ip), vehicle: saline); 98 % of control under setting [4].
With `CC(CCC(=O)O)(c1cc(Br)c(O)c(Br)c1)c1cc(Br)c(O)c(Br)c1`, the T/C is 96 % of control (endpoint: mean survival time, dose: 100.0 mg/kg/injection, schedule: Q01DX009 (ip), vehicle: other); 102 % of control (endpoint: mean survival time, dose: 200.0 mg/kg/injection, schedule: Q01DX009 (ip), vehicle: other); 101 % of control (endpoint: mean survival time, dose: 400.0 mg/kg/injection, schedule: Q01DX009 (ip), vehicle: other).
As for `Oc1ccccc1C=NC1CCCCC1N=Cc1ccccc1O.[Ni]` (stereo unspecified), the T/C by setting is: under setting [8], 89 % of control; under setting [9], 97 % of control; under setting [10], 97 % of control; under setting [11], 93 % of control.
As for `CSc1nc2c(c(=O)[nH]1)CC(=O)N2`, the T/C (endpoint: median survival time, dose: 50.0 mg/kg/injection, schedule: Q01DX005 (ip), vehicle: saline) is 93 % of control; the T/C (endpoint: median survival time, dose: 100.0 mg/kg/injection, schedule: Q01DX005 (ip), vehicle: saline) is 91 % of control; the T/C (endpoint: median survival time, dose: 200.0 mg/kg/injection, schedule: Q01DX005 (ip), vehicle: saline) was 98 % of control.
Consider `C#CCOCCC(C(=O)OCC)C(=O)OCC`, for which the T/C reads like this: (endpoint: mean survival time, dose: 100.0 mg/kg/injection, schedule: Q04DX003 (ip), vehicle: acetone) 108 % of control; (endpoint: mean survival time, dose: 200.0 mg/kg/injection, schedule: Q04DX003 (ip), vehicle: acetone) 103 % of control; (endpoint: mean survival time, dose: 400.0 mg/kg/injection, schedule: Q04DX003 (ip), vehicle: acetone) 110 % of control.
On to `COc1ccc(NC2=C(C)C(=O)C3=C(C2=O)[C@H](COC(N)=O)[C@]2(OC)[C@@H]4N[C@@H]4CN32)cc1`, for which the T/C is, setting by setting: (endpoint: mean survival time, dose: 1.5 mg/kg/injection, schedule: Q01DX001 (ip), vehicle: water) 107 % of control; (endpoint: mean survival time, dose: 3.0 mg/kg/injection, schedule: Q01DX001 (ip), vehicle: water) 118 % of control and 110 % of control; (endpoint: mean survival time, dose: 6.0 mg/kg/injection, schedule: Q01DX001 (ip), vehicle: water) 117 % of control and 111 % of control; (endpoint: mean survival time, dose: 12.0 mg/kg/injection, schedule: Q01DX001 (ip), vehicle: water) 124 % of control; (endpoint: mean survival time, dose: 24.0 mg/kg/injection, schedule: Q01DX001 (ip), vehicle: water) 153 % of control; (endpoint: mean survival time, dose: 48.0 mg/kg/injection, schedule: Q01DX001 (ip), vehicle: water) 124 % of control.
`CN(C)N=Nc1ccc(C(=O)N/N=C/c2ccccc2[N+](=O)[O-])cc1`: the T/C runs as follows: under setting [2], 104 % of control; under setting [3], 101 % of control; under setting [4], 115 % of control.
For `O=C(CCC(=O)Nc1ccc(S(=O)(=O)NCCO)cc1)Nc1ccc(S(=O)(=O)NCCO)cc1`, the T/C was 105 % of control (endpoint: mean survival time, dose: 12.5 mg/kg/injection, schedule: Q01DX001 (ip), vehicle: saline with Tween-80); 96 % of control (endpoint: mean survival time, dose: 12.5 mg/kg/injection, schedule: Q04DX002 (ip), vehicle: saline with Tween-80); 107 % of control (endpoint: mean survival time, dose: 25.0 mg/kg/injection, schedule: Q01DX001 (ip), vehicle: saline with Tween-80); 96 % of control (endpoint: mean survival time, dose: 25.0 mg/kg/injection, schedule: Q04DX002 (ip), vehicle: saline with Tween-80); 97 % of control (endpoint: mean survival time, dose: 50.0 mg/kg/injection, schedule: Q01DX001 (ip), vehicle: saline with Tween-80); 86 % of control under setting [8].
Turning to `CC(=O)C1C(=O)OC2(C)C(=O)C3=COC(/C=C\C(C)=C/C(C)C)=CC3=CC12` (stereo unspecified), the T/C by setting is: under setting [5], 100 % of control; under setting [6], 104 % of control; (endpoint: mean survival time, dose: 200.0 mg/kg/injection, schedule: Q04DX003 (ip), vehicle: saline with Tween-80) 91 % of control; under setting [7], 111 % of control; (endpoint: mean survival time, dose: 400.0 mg/kg/injection, schedule: Q04DX003 (ip), vehicle: saline with Tween-80) 88 % of control.
Regarding `C=CCNc1nc2c(s1)CCc1cc(OC)c(OC)cc1-2`, the T/C is 92 % of control and 97 % of control (endpoint: mean survival time, dose: 12.5 mg/kg/injection, schedule: Q01DX009 (ip), vehicle: saline with Tween-80); 95 % of control and 101 % of control (endpoint: mean survival time, dose: 25.0 mg/kg/injection, schedule: Q01DX009 (ip), vehicle: saline with Tween-80); 97 % of control and 98 % of control under setting [12]; 97 % of control and 101 % of control under setting [5]; 97 % of control and 101 % of control under setting [6]; 106 % of control under setting [7].
Turning to `COC(=O)CCCCCCCCCC(=O)OC`, the T/C is, setting by setting: under setting [9], 87 % of control; under setting [10], 102 % of control; under setting [11], 98 % of control.
For `CCNC(=S)Nc1ccccc1`, the T/C is 103 % of control under setting [12], 100 % of control under setting [5] and 111 % of control under setting [6].
